Values joined by “and” are separate entries in the source; they are usually repeats but may differ in a detail not shown here. Identical values can stand only once. Toxic doses and inconclusive results are not listed.
System: L1210 leukemia ip in BDF1 mice, survival T/C
Experiment: NCI In Vivo Anticancer Drug Screen. Data for tumor model L1210 Leukemia (intraperitoneal) in B6D2F1 (BDF1) mice
Conditions: endpoint: mean survival time, higher = longer survival
Method in brief: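 Mice bearing the transplanted tumor received compound or vehicle. Survival of the treated group was divided by that of the vehicle-treated control group to give the ratio.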

[1] = dose: 100.0 mg/kg/injection, schedule: Q01DX009 (ip), vehicle: saline with Tween-80
[2] = dose: 100.0 mg/kg/injection, schedule: Q04DX003 (ip), vehicle: saline with Tween-80
[3] = dose: 200.0 mg/kg/injection, schedule: Q01DX009 (ip), vehicle: saline with Tween-80
[4] = dose: 200.0 mg/kg/injection, schedule: Q04DX003 (ip), vehicle: saline with Tween-80
[5] = dose: 400.0 mg/kg/injection, schedule: Q01DX009 (ip), vehicle: saline with Tween-80
[6] = dose: 400.0 mg/kg/injection, schedule: Q04DX003 (ip), vehicle: saline with Tween-80
[7] = dose: 25.0 mg/kg/injection, schedule: Q01DX009 (ip), vehicle: Klucel (hydroxypropylcellulose) (HPC)
[8] = dose: 50.0 mg/kg/injection, schedule: Q01DX009 (ip), vehicle: Klucel (hydroxypropylcellulose) (HPC)
[9] = dose: 100.0 mg/kg/injection, schedule: Q01DX009 (ip), vehicle: Klucel (hydroxypropylcellulose) (HPC)
[10] = dose: 100.0 mg/kg/injection, schedule: Q04DX003 (ip), vehicle: Klucel (hydroxypropylcellulose) (HPC)
[11] = dose: 200.0 mg/kg/injection, schedule: Q01DX009 (ip), vehicle: Klucel (hydroxypropylcellulose) (HPC)
[12] = dose: 50.0 mg/kg/injection, schedule: Q01DX001 (ip), vehicle: carboxymethylcellulose (CMC)
[13] = dose: 400.0 mg/kg/injection, schedule: Q01DX009 (ip), vehicle: Klucel (hydroxypropylcellulose) (HPC)
[14] = dose: 100.0 mg/kg/injection, schedule: Q01DX001 (ip), vehicle: Klucel (hydroxypropylcellulose) (HPC)
[15] = dose: 200.0 mg/kg/injection, schedule: Q04DX003 (ip), vehicle: Klucel (hydroxypropylcellulose) (HPC)
[16] = dose: 400.0 mg/kg/injection, schedule: Q04DX003 (ip), vehicle: Klucel (hydroxypropylcellulose) (HPC)
[17] = dose: 12.5 mg/kg/injection, schedule: Q01DX009 (ip), vehicle: Klucel (hydroxypropylcellulose) (HPC)

For `CC(=O)Nc1ccc(/C=C/C(=O)c2ccc(Cl)cc2)cc1`, the T/C [1] was 102 % of control, the T/C [2] was 100 % of control and the T/C [3] was 89 % of control. For the same compound, the T/C [4] was 87 % of control, the T/C [5] was 91 % of control and the T/C [6] was 90 % of control.

In the case of `CC(C)C1=CC23CCC4C(C)(C(=O)O)CCCC4(C)C2CC1C1C(=O)OC(=O)C13` (stereo not given), the T/C [7] was 106 % of control, the T/C (dose: 25.0 mg/kg/injection, schedule: Q04DX003 (ip), vehicle: Klucel (hydroxypropylcellulose) (HPC)) was 103 % of control and the T/C [8] was 102 % of control. The T/C (dose: 50.0 mg/kg/injection, schedule: Q04DX003 (ip), vehicle: Klucel (hydroxypropylcellulose) (HPC)) was 101 % of control, the T/C [9] was 102 % of control and the T/C [10] was 95 % of control. For the same compound, the T/C [11] was 91 % of control.

In the case of `Oc1ccccc1/C=N/Nc1nnc(N/N=C/c2ccccc2O)c2ccccc12`, the T/C [12] was 109 % of control, the T/C (dose: 100.0 mg/kg/injection, schedule: Q01DX001 (ip), vehicle: carboxymethylcellulose (CMC)) was 96 % of control and the T/C (dose: 200.0 mg/kg/injection, schedule: Q01DX001 (ip), vehicle: carboxymethylcellulose (CMC)) was 97 % of control. The T/C (dose: 400.0 mg/kg/injection, schedule: Q01DX001 (ip), vehicle: carboxymethylcellulose (CMC)) was 90 % of control.

In the case of `CC(=O)CC=NCCN=CCC(C)=O`, the T/C (dose: 100.0 mg/kg/injection, schedule: Q01DX001 (ip), vehicle: saline with Tween-80) was 98 % of control, the T/C (dose: 200.0 mg/kg/injection, schedule: Q01DX001 (ip), vehicle: saline with Tween-80) was 103 % of control and the T/C (dose: 400.0 mg/kg/injection, schedule: Q01DX001 (ip), vehicle: saline with Tween-80) was 95 % of control.

`CCCCCCCCCCCCCCCc1cccc2ccccc12` was tested, and the T/C [2] was 92 % of control, the T/C [4] was 92 % of control and the T/C [6] was 88 % of control.

With `Cc1cc(C)c(NC(=O)C(C)(C)C)c(C)c1` the T/C [9] was 96 % of control and 100 % of control, the T/C [11] was 102 % of control and the T/C [13] was 96 % of control and 100 % of control.

In the case of `CC(C)C1CCC2(CC1)CC(=O)N(CCC[N+](C)(C)C)C(=O)C2`, the T/C [12] was 96 % of control.

In the case of `CCN(CC)CCCC(C)Nc1cc(C)nc(/N=C(\N)Nc2ccc(Cl)c(Cl)c2)n1` (stereo not given), the T/C [7] was 96 % of control, the T/C [8] was 94 % of control and the T/C [14] was 92 % of control.

With `O=C1C2(Cl)C(Cl)=C(Cl)C1(Cl)C1(Cl)C(Cl)=C(Cl)C(=O)C21Cl` (stereo not given) the T/C [14] was 102 % of control, the T/C (dose: 200.0 mg/kg/injection, schedule: Q01DX001 (ip), vehicle: Klucel (hydroxypropylcellulose) (HPC)) was 102 % of control and the T/C (dose: 400.0 mg/kg/injection, schedule: Q01DX001 (ip), vehicle: Klucel (hydroxypropylcellulose) (HPC)) was 97 % of control.

For `CCOC/C=C\c1ccccc1`, the T/C (dose: 50.0 mg/kg/injection, schedule: Q01DX009 (ip), vehicle: saline with Tween-80) was 95 % of control, the T/C [1] was 92 % of control and the T/C [3] was 92 % of control.

For `CC(=N\N=C(N)N)/C(N=Nc1ccc(S(N)(=O)=O)cc1)=N\N=C(N)N`, the T/C (dose: 15.0 mg/kg/injection, schedule: Q01DX Z (ip), vehicle: carboxymethylcellulose (CMC)) was 105 % of control, the T/C (dose: 30.0 mg/kg/injection, schedule: Q01DX Z (oral), vehicle: carboxymethylcellulose (CMC)) was 96 % of control and 102 % of control and the T/C (dose: 60.0 mg/kg/injection, schedule: Q01DX Z (ip), vehicle: carboxymethylcellulose (CMC)) was 160 % of control and 168 % of control and 184 % of control. The T/C (dose: 60.0 mg/kg/injection, schedule: Q01DX Z (oral), vehicle: carboxymethylcellulose (CMC)) was 109 % of control and 120 % of control and the T/C (dose: 120.0 mg/kg/injection, schedule: Q01DX Z (oral), vehicle: carboxymethylcellulose (CMC)) was 113 % of control.

With `O=C1COc2ccccc21` the T/C (dose: 50.0 mg/kg/injection, schedule: Q01DX001 (ip), vehicle: saline) was 97 % of control, the T/C (dose: 100.0 mg/kg/injection, schedule: Q01DX001 (ip), vehicle: saline) was 100 % of control and the T/C (dose: 200.0 mg/kg/injection, schedule: Q01DX001 (ip), vehicle: saline) was 100 % of control. For the same compound, the T/C (dose: 400.0 mg/kg/injection, schedule: Q01DX001 (ip), vehicle: saline) was 100 % of control.

`S=C1NC(c2ccc(Cl)cc2)N2C(=S)NC(c3ccc(Cl)cc3)N12` (stereo not given) was tested, and the T/C (dose: 100.0 mg/kg/injection, schedule: Q01DX009 (ip), vehicle: gum acacia) was 98 % of control, the T/C (dose: 100.0 mg/kg/injection, schedule: Q04DX003 (ip), vehicle: gum acacia) was 104 % of control and the T/C (dose: 200.0 mg/kg/injection, schedule: Q01DX009 (ip), vehicle: gum acacia) was 93 % of control. The T/C (dose: 200.0 mg/kg/injection, schedule: Q04DX003 (ip), vehicle: gum acacia) was 101 % of control and the T/C (dose: 400.0 mg/kg/injection, schedule: Q04DX003 (ip), vehicle: gum acacia) was 98 % of control.

For `CC(C)CC(C)OC(C[N+](=O)[O-])C(Cl)(Cl)Cl` (stereo not given), the T/C [1] was 93 % of control, the T/C [2] was 106 % of control and the T/C [4] was 104 % of control. The T/C [5] was 93 % of control and the T/C [6] was 98 % of control.

`O=[N+]([O-])c1ccc2c(c1)Cc1cc(Br)ccc1-2` was tested, and the T/C [9] was 106 % of control, the T/C [10] was 92 % of control and the T/C [11] was 95 % of control. For the same compound, the T/C [15] was 91 % of control, the T/C [13] was 98 % of control and the T/C [16] was 102 % of control.

With `O=C(CC(C(=O)O)N1CCOCC1)c1ccccc1` (stereo not given) the T/C (dose: 50.0 mg/kg/injection, schedule: Q01DX009 (ip), vehicle: saline sonified) was 99 % of control, the T/C (dose: 100.0 mg/kg/injection, schedule: Q01DX009 (ip), vehicle: saline sonified) was 97 % of control and the T/C [10] was 97 % of control. For the same compound, the T/C (dose: 200.0 mg/kg/injection, schedule: Q01DX009 (ip), vehicle: saline sonified) was 97 % of control and the T/C [15] was 92 % of control.

`C[S+](C)CC(=O)c1ccccc1` was tested, and the T/C (dose: 100.0 mg/kg/injection, schedule: Q04DX003 (ip), vehicle: saline) was 95 % of control and the T/C (dose: 200.0 mg/kg/injection, schedule: Q04DX003 (ip), vehicle: saline) was 104 % of control.

In the case of `CS(=O)(=O)OCOS(C)(=O)=O`, the T/C [17] was 104 % of control, the T/C (dose: 12.5 mg/kg/injection, schedule: Q01DX009 (ip), vehicle: saline) was 96 % of control and the T/C [7] was 101 % of control. For the same compound, the T/C (dose: 25.0 mg/kg/injection, schedule: Q01DX009 (ip), vehicle: saline) was 100 % of control, the T/C [8] was 120 % of control and the T/C (dose: 50.0 mg/kg/injection, schedule: Q04DX002 (ip), vehicle: saline) was 119 % of control.

For `O=[As](O)(O)c1ccc(OCCO)cc1`, the T/C (dose: 100.0 mg/kg/injection, schedule: Q01DX009 (ip), vehicle: saline) was 96 % of control and the T/C (dose: 200.0 mg/kg/injection, schedule: Q01DX009 (ip), vehicle: saline) was 96 % of control.

For `O=[N+]([O-])c1cc(Cl)cc2c1-c1c(Cl)cc(Cl)cc1C2Br` (stereo not given), the T/C [9] was 101 % of control, the T/C [10] was 98 % of control and the T/C [11] was 104 % of control. For the same compound, the T/C [15] was 96 % of control, the T/C [13] was 103 % of control and the T/C [16] was 93 % of control.

With `OC(c1ccccc1)C(O)c1ccccc1` (stereo not given) the T/C (dose: 5.0 mg/kg/injection, schedule: Q01DX001 (ip), vehicle: saline) was 103 % of control, the T/C (dose: 10.0 mg/kg/injection, schedule: Q01DX001 (ip), vehicle: saline) was 100 % of control and the T/C [17] was 93 % of control. The T/C (dose: 20.0 mg/kg/injection, schedule: Q01DX001 (ip), vehicle: saline) was 97 % of control, the T/C [7] was 92 % of control and the T/C (dose: 40.0 mg/kg/injection, schedule: Q01DX001 (ip), vehicle: saline) was 92 % of control. For the same compound, the T/C [8] was 93 % of control and the T/C (dose: 80.0 mg/kg/injection, schedule: Q01DX001 (ip), vehicle: saline) was 98 % of control.

From PubChem BioAssay AID248 (DTP/NCI, 2004)
